Reference: ChEMBL document CHEMBL1157940, “Culicinin D, an antitumor peptaibol produced by the fungus Culicinomyces clavisporus, strain LL-12I252” (J Nat Prod, 2006)
In brackets after ≈: the same amount, converted by molar mass. Activity calls are given as the source filed them. The rule behind the calls is not given here. Numbered stars: 1 amine (or outer) side, 2 acyl side, 3 side chain; on linkers, the order of the positions; unused ones are H or OH. Square brackets hold non-standard residues; d marks the D form. Peptide text beside a SMILES is read from it. * marks the point of attachment. X1 = CCC(=O)CC(O)CC(C)C[C@H](N[*:1])C(=O)[*:2]; X2 = CCCCCCC(C)C[C@@H](N[*:1])C(=O)[*:2]; Aib = CC(C)(N)C(=O)O; Butyryl = CCCC(=O)*; X3 = CC(CNCCO)N*; βAla = NCCC(=O)O

Columns and labels:
MDA-MB-435 = test: Growth inhibition of human MDA435 overexpressing PTEN after 3 days by MTS assay; format: functional; conditions: MDA-MB-435, 72 h
[1] = Effect on PI3K/AKT/mTOR pathway in PTEN deficient human MDA468 cells assessed as inhibition of S6K phosphorylation after 16 hrs by Western blot; format: cell-based; conditions: MDA-MB-468
[2] = Effect on PI3K/AKT/mTOR pathway in PTEN deficient human MDA468 cells assessed as inhibition of S6 phosphorylation after 16 hrs by Western blot; format: cell-based; conditions: MDA-MB-468
[3] = Effect on PI3K/AKT/mTOR pathway in PTEN deficient human MDA468 cells assessed as phosphorylated AKT level at 0.01 to 0.1 ug/mL after 16 hrs by Western blot; format: cell-based; conditions: MDA-MB-468
[4] = Effect on PI3K/AKT/mTOR pathway in PTEN deficient human MDA468 cells assessed as increase in p27Kip1 level at 0.01 to 0.1 ug/mL after 16 hrs by Western blot; format: cell-based; conditions: MDA-MB-468
[5] = Effect on PI3K/AKT/mTOR pathway in PTEN deficient human MDA468 cells assessed as inhibition of cyclin D3 level at 0.01 to 0.1 ug/mL after 16 hrs by Western blot; format: cell-based; conditions: MDA-MB-468
[6] = Effect on PI3K/AKT/mTOR pathway in PTEN deficient human MDA468 cells assessed as inhibition of 4EBP1 phosphorylation after 16 hrs by Western blot; format: cell-based; conditions: MDA-MB-468
[7] = Growth inhibition of PTEN deficient human MDA468 cells after 3 days by MTS assay; format: functional, cell-based; conditions: MDA-MB-468, 72 h

CCCCCCC(C)C[C@@H](NC(=O)C(C)(C)NC(=O)C(C)(C)NC(=O)[C@H](CC(C)CC(O)CC(=O)CC)NC(=O)[C@@H]1CCCN1C(=O)CCC)C(=O)N[C@@H](CC(C)C)C(=O)NC(C)(C)C(=O)N[C@@H](CC(C)C)C(=O)NCCC(=O)NC(C)CNCCO (stereo partly drawn) [CULICININ D] (Butyryl-P[X1][Aib][Aib][X2]L[Aib]L[βAla]-X3)
IC50 (MDA-MB-435): 1.6 µg/mL (≈ 1.3 µM) | Activity [1]: Dose-dependent effect | Activity [2]: Dose-dependent effect | Activity [3]: inactive | Activity [4]: Active | Activity [5]: Active | Activity [6]: Dose-dependent effect | IC50 [7]: < 0.007 µg/mL
